Data: US11578056B2, “Solid forms comprising (S)-2-(2,6-dioxopiperidin-3-yl)-4-((2-fluoro-4-((3-morpholinoazetidin-1-yl)methyl)benzyl)amino)isoindoline-1,3-dione and salts thereof, and compositions comprising and methods of using the same” (Celgene Corporation, priority 2019, dated 2023)

Legend:
Format in all cases: physicochemical
[1] = Dynamic vapor sorption (DVS) hygroscopicity
Description: Dynamic vapor sorption (DVS) was measured using DVS advantage (Surface Measurement Systems Ltd). The samples were tested under isotherm (25° C.) at a targeted RH of 0 to 95% full cycle in step mode. For an isotherm test, the chamber temperature is maintained by a water bath at constant 25.0±1.0° C. The relative humidity in the sample chamber is generated by combining different flows of wet and dry nitrogen with variable flow rates. The analysis was performed in 10% RH increments. Sampling rate is 1 sec save data rate is 20 sec. The dm/dt (%) value was set at 0.001 with a dm/dt window of 5 min., a minimum stability duration time of 10 min, and a maximum stage time of 180 min. The sample's equilibrium weight corresponding to each RH was recorded. A sorption isotherm is obtained by plotting equilibrium moisture content versus RH.

[2] = Estimated solubility of free base and salt forms in solvents (aliquot addition, visual)
Description: The experiments were carried out by adding the test solvent in aliquots to weighed portions of solid. Whether dissolution had occurred was judged by visual inspection after addition of each solvent aliquot. Solubility numbers were calculated by dividing the total amount of solvent used to dissolve the sample by the weight of the sample. […] The solubility number is expressed as “greater than or equal to” if dissolution occurred on addition of the first solvent aliquot.

[3] = Solid state stability of free base and salt forms under stress storage conditions;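 for Physical stability: Physical stability judged by XRPD check of crystalline form at end of study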
Description: The solid samples were analyzed for both chemical and chiral stability.

Compound: O=C1CC[C@H](N2C(=O)c3cccc(NCc4ccc(CN5CC(N6CCOCC6)C5)cc4F)c3C2=O)C(=O)N1 [Compound 1 amorphous free base]
- hygroscopicity (DVS) ([1]; below 75% RH): relatively high hygroscopicity
- sorption/desorption reversibility (DVS) ([1]; during two full cycles): almost reversible
- moisture picked up (DVS) ([1]; from dry up to 90% RH): ~6.0 % wt

Compound: Cl.Cl.O=C1CC[C@H](N2C(=O)c3cccc(NCc4ccc(CN5CC(N6CCOCC6)C5)cc4F)c3C2=O)C(=O)N1
- hygroscopicity (DVS) ([1]; below 90% RH): highly hygroscopic
- moisture gain (DVS) ([1]; from 80% RH to 90% RH): ~6.7%
- water content released during desorption (DVS) ([1]; from 90 to 80% RH): ~7.0%
- moisture picked up (DVS) ([1]; from dry up to 80% RH): ~8.0 % wt

Compound: Tosylate
- Solubility ([2]; 2-methyl tetrahydrofuran): <1000 µg/mL
- Solubility ([2]; 2-propanol): <1000 µg/mL
- Solubility ([2]; 95:5 2-PrOH/water): <1000 µg/mL
- Solubility ([2]; 95:5 ACN/water): 17000 µg/mL
- Solubility ([2]; 95:5 THF/water): 16000 µg/mL
- Solubility ([2]; 95:5 acetone/water): 3000 µg/mL
- Solubility ([2]; N-methyl pyrrolidone): 17000 µg/mL
- Solubility ([2]; acetone): <1000 µg/mL
- Solubility ([2]; acetonitrile): 1000 µg/mL
- Solubility ([2]; anisole): <1000 µg/mL
- Solubility ([2]; dichloromethane): 1000 µg/mL
- Solubility ([2]; dimethylacetamide): 30000 µg/mL
- Solubility ([2]; dimethylsulfoxide): 34000 µg/mL
- Solubility ([2]; ethanol): <1000 µg/mL
- Solubility ([2]; ethyl acetate): <1000 µg/mL
- Solubility ([2]; ethyl formate): <1000 µg/mL
- Solubility ([2]; isopropyl acetate): <1000 µg/mL
- Solubility ([2]; methanol): 3000 µg/mL
- Solubility ([2]; methyl ethyl ketone): <1000 µg/mL
- Solubility ([2]; methyl tert-butyl ether): <1000 µg/mL
- Solubility ([2]; nitromethane): 4000 µg/mL
- Solubility ([2]; tetrahydrofuran): <1000 µg/mL
- Solubility ([2]; toluene): <1000 µg/mL
- Solubility ([2]; water): 2000 µg/mL
- Chemical (%) ([3]; 40° C.): 99.18%
- Chiral (%) ([3]; 40° C.): 98.52%
- Physical stability ([3]; 40° C.): Stable
- Chemical (%) ([3]; 40° C./80% RH): 98.84%
- Chiral (%) ([3]; 40° C./80% RH): 98.48%
- Physical stability ([3]; 40° C./80% RH): Stable
- Chemical (%) ([3]; 60° C.): 99.01%
- Chiral (%) ([3]; 60° C.): 98.46%
- Physical stability ([3]; 60° C.): Stable
- Chemical (%) ([3]; 60° C./75% RH): 96.76%
- Chiral (%) ([3]; 60° C./75% RH): 98.10%
- Physical stability ([3]; 60° C./75% RH): Stable
- Chemical (%) ([3]; 70° C.): 98.58%
- Chiral (%) ([3]; 70° C.): 98.43%
- Physical stability ([3]; 70° C.): Stable
- Chemical (%) ([3]; 70° C./80% RH): 95.73%
- Chiral (%) ([3]; 70° C./80% RH): 97.64%
- Physical stability ([3]; 70° C./80% RH): Stable
- Chemical (%) ([3]; Ambient): 99.19%
- Chiral (%) ([3]; Ambient): 98.49%

Compound: O=C1CC[C@H](N2C(=O)c3cccc(NCc4ccc(CN5CC(N6CCOCC6)C5)cc4F)c3C2=O)C(=O)N1 [Free Base]
- Solubility ([2]; 2-methyl tetrahydrofuran): 30000 µg/mL
- Solubility ([2]; 2-propanol): <1000 µg/mL
- Solubility ([2]; 95:5 2-PrOH/water): 2000 µg/mL
- Solubility ([2]; 95:5 ACN/water): 27000 µg/mL
- Solubility ([2]; 95:5 THF/water): 20000 µg/mL
- Solubility ([2]; 95:5 acetone/water): 31000 µg/mL
- Solubility ([2]; N-methyl pyrrolidone): 31000 µg/mL
- Solubility ([2]; acetone): 52000 µg/mL
- Solubility ([2]; acetonitrile): 33000 µg/mL
- Solubility ([2]; anisole): 26000 µg/mL
- Solubility ([2]; dichloromethane): 59000 µg/mL
- Solubility ([2]; dimethylacetamide): 34000 µg/mL
- Solubility ([2]; ethanol): 1000 µg/mL
- Solubility ([2]; ethyl acetate): 33000 µg/mL
- Solubility ([2]; ethyl formate): 30000 µg/mL
- Solubility ([2]; isopropyl acetate): 6000 µg/mL
- Solubility ([2]; methanol): 2000 µg/mL
- Solubility ([2]; methyl ethyl ketone): 29000 µg/mL
- Solubility ([2]; methyl tert-butyl ether): <1000 µg/mL
- Solubility ([2]; nitromethane): 34000 µg/mL
- Solubility ([2]; tetrahydrofuran): 28000 µg/mL
- Solubility ([2]; toluene): 3000 µg/mL
- Solubility ([2]; water): <1000 µg/mL

Compound: Fumarate
- Solubility ([2]; 2-methyl tetrahydrofuran): <1000 µg/mL
- Solubility ([2]; 2-propanol): <1000 µg/mL
- Solubility ([2]; 95:5 2-PrOH/water): 1000 µg/mL
- Solubility ([2]; 95:5 ACN/water): 2000 µg/mL
- Solubility ([2]; 95:5 THF/water): 8000 µg/mL
- Solubility ([2]; 95:5 acetone/water): 2000 µg/mL
- Solubility ([2]; N-methyl pyrrolidone): 17000 µg/mL
- Solubility ([2]; acetone): <1000 µg/mL
- Solubility ([2]; acetonitrile): <1000 µg/mL
- Solubility ([2]; anisole): <1000 µg/mL
- Solubility ([2]; dichloromethane): <1000 µg/mL
- Solubility ([2]; dimethylacetamide): 23000 µg/mL
- Solubility ([2]; dimethylsulfoxide): 36000 µg/mL
- Solubility ([2]; ethanol): <1000 µg/mL
- Solubility ([2]; ethyl acetate): <1000 µg/mL
- Solubility ([2]; ethyl formate): <1000 µg/mL
- Solubility ([2]; isopropyl acetate): <1000 µg/mL
- Solubility ([2]; methanol): 3000 µg/mL
- Solubility ([2]; methyl ethyl ketone): <1000 µg/mL
- Solubility ([2]; methyl tert-butyl ether): <1000 µg/mL
- Solubility ([2]; nitromethane): <1000 µg/mL
- Solubility ([2]; tetrahydrofuran): 1000 µg/mL
- Solubility ([2]; toluene): <1000 µg/mL
- Solubility ([2]; water): 2000 µg/mL
- Chemical (%) ([3]; 40° C.): 98.64%
- Chiral (%) ([3]; 40° C.): 95.39%
- Physical stability ([3]; 40° C.): Stable
- Chemical (%) ([3]; 40° C./80% RH): 98.69%
- Chiral (%) ([3]; 40° C./80% RH): 94.55%
- Physical stability ([3]; 40° C./80% RH): Stable
- Chemical (%) ([3]; 60° C.): 97.43%
- Chiral (%) ([3]; 60° C.): 95.54%
- Physical stability ([3]; 60° C.): Stable
- Chemical (%) ([3]; 60° C./75% RH): 98.19%
- Chiral (%) ([3]; 60° C./75% RH): 93.14%
- Physical stability ([3]; 60° C./75% RH): Stable
- Chemical (%) ([3]; 70° C.): 95.94%
- Chiral (%) ([3]; 70° C.): 95.11%
- Physical stability ([3]; 70° C.): Stable
- Chemical (%) ([3]; 70° C./80% RH): 93.79%
- Chiral (%) ([3]; 70° C./80% RH): 91.52%
- Physical stability ([3]; 70° C./80% RH): Stable
- Chemical (%) ([3]; Ambient): 98.77%
- Chiral (%) ([3]; Ambient): 95.82%

Compound: Cl.O=C1CC[C@H](N2C(=O)c3cccc(NCc4ccc(CN5CC(N6CCOCC6)C5)cc4F)c3C2=O)C(=O)N1 [HCl Salt]
- Solubility ([2]; 2-methyl tetrahydrofuran): <1000 µg/mL
- Solubility ([2]; 2-propanol): <1000 µg/mL
- Solubility ([2]; 95:5 2-PrOH/water): <1000 µg/mL
- Solubility ([2]; 95:5 ACN/water): 3000 µg/mL
- Solubility ([2]; 95:5 THF/water): 1000 µg/mL
- Solubility ([2]; 95:5 acetone/water): <1000 µg/mL
- Solubility ([2]; N-methyl pyrrolidone): 1000 µg/mL
- Solubility ([2]; acetone): <1000 µg/mL
- Solubility ([2]; acetonitrile): <1000 µg/mL
- Solubility ([2]; anisole): <1000 µg/mL
- Solubility ([2]; dichloromethane): <1000 µg/mL
- Solubility ([2]; dimethylacetamide): 1000 µg/mL
- Solubility ([2]; dimethylsulfoxide): 38000 µg/mL
- Solubility ([2]; ethanol): <1000 µg/mL
- Solubility ([2]; ethyl acetate): <1000 µg/mL
- Solubility ([2]; ethyl formate): <1000 µg/mL
- Solubility ([2]; isopropyl acetate): <1000 µg/mL
- Solubility ([2]; methanol): 2000 µg/mL
- Solubility ([2]; methyl ethyl ketone): <1000 µg/mL
- Solubility ([2]; methyl tert-butyl ether): <1000 µg/mL
- Solubility ([2]; nitromethane): <1000 µg/mL
- Solubility ([2]; tetrahydrofuran): <1000 µg/mL
- Solubility ([2]; toluene): <1000 µg/mL
- Solubility ([2]; water): 2000 µg/mL

Compound: O=C1CC[C@H](N2C(=O)c3cccc(NCc4ccc(CN5CC(N6CCOCC6)C5)cc4F)c3C2=O)C(=O)N1 [Free base]
- Chemical (%) ([3]; 40° C.): 98.44%
- Chiral (%) ([3]; 40° C.): 99.03%
- Chemical (%) ([3]; 40° C./80% RH): 98.56%
- Chiral (%) ([3]; 40° C./80% RH): 99.02%
- Chemical (%) ([3]; 60° C.): 95.80%
- Chiral (%) ([3]; 60° C.): 98.69%
- Physical stability ([3]; 60° C.): Unstable
- Chemical (%) ([3]; 60° C./75% RH): 98.10%
- Chiral (%) ([3]; 60° C./75% RH): 83.04%
- Physical stability ([3]; 60° C./75% RH): Unstable
- Chemical (%) ([3]; 70° C.): 85.68%
- Chiral (%) ([3]; 70° C.): 95.57%
- Physical stability ([3]; 70° C.): Unstable
- Chemical (%) ([3]; 70° C./80% RH): 93.29%
- Chiral (%) ([3]; 70° C./80% RH): 52.01%
- Physical stability ([3]; 70° C./80% RH): Unstable
- Chemical (%) ([3]; Ambient): 98.95%
- Chiral (%) ([3]; Ambient): 99.16%

Compound: Cl.O=C1CC[C@H](N2C(=O)c3cccc(NCc4ccc(CN5CC(N6CCOCC6)C5)cc4F)c3C2=O)C(=O)N1 [HC1 salt]
- Chemical (%) ([3]; 40° C.): 99.13%
- Chiral (%) ([3]; 40° C.): 99.29%
- Physical stability ([3]; 40° C.): Stable
- Chemical (%) ([3]; 40° C./80% RH): 99.56%
- Chiral (%) ([3]; 40° C./80% RH): 99.22%
- Physical stability ([3]; 40° C./80% RH): Stable
- Chemical (%) ([3]; 60° C.): 99.35%
- Chiral (%) ([3]; 60° C.): 99.02%
- Physical stability ([3]; 60° C.): Stable
- Chemical (%) ([3]; 60° C./75% RH): 99.56%
- Chiral (%) ([3]; 60° C./75% RH): 98.70%
- Physical stability ([3]; 60° C./75% RH): Stable
- Chemical (%) ([3]; 70° C.): 99.32%
- Chiral (%) ([3]; 70° C.): 99.13%
- Physical stability ([3]; 70° C.): Stable
- Chemical (%) ([3]; 70° C./80% RH): 99.43%
- Chiral (%) ([3]; 70° C./80% RH): 98.91%
- Physical stability ([3]; 70° C./80% RH): Stable
- Chemical (%) ([3]; Ambient): 99.08%
- Chiral (%) ([3]; Ambient): 99.26%
